# Data published in patent US20230060422A1, “COMBINATION TREATMENT OF LIVER DISEASES USING INTEGRIN INHIBITORS” (NOVARTIS AG, priority 2019, published 2023).
# Entries after “also recorded” stand apart in the source; their conditions may differ. Where two headings read alike, the source gives them in different places.
# Key:
# CDAHFD NASH mouse model [1] = assay: 10-week CDAHFD study, comparison with CWHM12; assay type: in vivo; conditions: 4 weeks treatment in 10-week CDAHFD study
# Procedure: (§1) CDAHFD injury is a rodent model of NASH displaying liver fat accumulation, inflammation, and fibrosis (Matsumoto 2013). Three types of studies were performed: 1) prophylactic, Compound 1 in an abbreviated 3-week CDAHFD model; 2) therapeutic, Compound 1 for 6 weeks in the 11- to 12-week CDAHFD model; and 3) Compound 1 for 4 weeks in a 10-week CDAHFD model.
# Although pan-αv inhibition with CWHM12 reduced pSMAD and OHP levels, selective αvβ1 inhibition was sufficient for antifibrotic activity.
# CDAHFD NASH mouse model [2] = assay: Therapeutic 11- to 12-week CDAHFD injury studies; assay type: in vivo
# Procedure: as §1
# Compound 1 was tested therapeutically in 11- to 12-week CDAHFD injury studies at medium, high and highest doses across 3 independent studies.
# [3] = test system: healthy male and female participants; assay: First-in-human single and multiple ascending dose study; assay type: in vivo; conditions: single and multiple (7 days) ascending doses, thus far
# Procedure: Part A of the study was a first-in-human, randomized, double-blind, placebo-controlled, parallel-group, single ascending dose study of the safety, tolerability, and PK of Compound 1 in a maximum of […] healthy male and female (non-childbearing potential) participants. Forty participants will be enrolled in up to 5 sequential cohorts.
# Part B of the study is on-going and was initiated after the first 2 cohorts in Part A of the study had been completed. The doses in Part B were determined from Part A of the study and were not higher than the highest dose that was administered in Part A of the study.
# Part B of the study is a randomized, double-blind, placebo-controlled, parallel-group, multiple ascending dose study of the PK, PD, safety, and tolerability of Compound 1 administered for 7 days in a maximum of 40 healthy male and female (non-childbearing potential) participants.
# human integrin αVβ1 [4] = target: T1, human integrin αVβ1 (Homo sapiens, UniProt P05556+P06756); assay: Solid phase integrin binding assay (TGFβ1 LAP binding)
# T1 sequence (P06756 31-992 limits assumed): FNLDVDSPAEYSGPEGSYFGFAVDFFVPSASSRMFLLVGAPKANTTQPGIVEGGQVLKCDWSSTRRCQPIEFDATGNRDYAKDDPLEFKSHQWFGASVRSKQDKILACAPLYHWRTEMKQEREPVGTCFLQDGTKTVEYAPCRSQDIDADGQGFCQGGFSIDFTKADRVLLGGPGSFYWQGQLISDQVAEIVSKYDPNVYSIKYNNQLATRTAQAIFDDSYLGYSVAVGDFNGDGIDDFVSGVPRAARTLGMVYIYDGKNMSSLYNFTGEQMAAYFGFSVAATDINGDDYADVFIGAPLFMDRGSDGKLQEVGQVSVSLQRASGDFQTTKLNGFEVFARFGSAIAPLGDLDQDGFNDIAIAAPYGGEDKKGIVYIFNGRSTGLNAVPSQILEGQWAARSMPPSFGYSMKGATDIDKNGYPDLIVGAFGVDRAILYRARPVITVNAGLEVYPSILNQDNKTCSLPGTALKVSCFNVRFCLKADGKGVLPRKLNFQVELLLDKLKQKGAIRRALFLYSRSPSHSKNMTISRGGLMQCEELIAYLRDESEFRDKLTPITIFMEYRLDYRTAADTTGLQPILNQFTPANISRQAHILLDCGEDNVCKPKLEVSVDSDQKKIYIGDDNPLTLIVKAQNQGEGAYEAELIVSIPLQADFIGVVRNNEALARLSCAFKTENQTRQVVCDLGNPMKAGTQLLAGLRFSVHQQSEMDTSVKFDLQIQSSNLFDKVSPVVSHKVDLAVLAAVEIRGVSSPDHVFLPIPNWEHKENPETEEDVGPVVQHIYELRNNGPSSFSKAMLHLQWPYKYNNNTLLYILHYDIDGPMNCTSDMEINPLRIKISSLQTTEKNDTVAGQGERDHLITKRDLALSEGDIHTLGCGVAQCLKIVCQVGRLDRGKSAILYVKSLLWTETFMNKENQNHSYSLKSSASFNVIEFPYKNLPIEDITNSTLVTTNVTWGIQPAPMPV
# T1 sequence (P05556 21-728 limits assumed): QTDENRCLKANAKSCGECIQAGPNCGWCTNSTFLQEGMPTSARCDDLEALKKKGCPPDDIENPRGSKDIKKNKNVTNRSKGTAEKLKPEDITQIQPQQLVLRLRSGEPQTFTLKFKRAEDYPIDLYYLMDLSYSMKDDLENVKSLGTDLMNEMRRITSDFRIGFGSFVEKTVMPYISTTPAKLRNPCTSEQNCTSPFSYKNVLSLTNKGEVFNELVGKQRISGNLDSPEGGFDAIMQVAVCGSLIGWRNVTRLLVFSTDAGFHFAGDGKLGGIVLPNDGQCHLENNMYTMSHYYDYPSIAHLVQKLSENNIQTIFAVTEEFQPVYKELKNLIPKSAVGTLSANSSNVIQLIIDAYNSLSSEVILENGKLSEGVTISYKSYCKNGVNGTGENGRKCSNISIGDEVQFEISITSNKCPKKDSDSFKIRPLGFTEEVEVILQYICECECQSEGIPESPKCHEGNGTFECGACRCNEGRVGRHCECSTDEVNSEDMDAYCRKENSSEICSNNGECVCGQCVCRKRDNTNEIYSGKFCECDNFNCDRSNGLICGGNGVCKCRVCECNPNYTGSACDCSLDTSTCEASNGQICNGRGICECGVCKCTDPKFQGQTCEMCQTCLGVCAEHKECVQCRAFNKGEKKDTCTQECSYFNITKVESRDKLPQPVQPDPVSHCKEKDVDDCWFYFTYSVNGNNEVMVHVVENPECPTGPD
# Procedure: (§2) Microplates were coated with recombinant human integrin αVβ1 or αVβ6 (2 μg/mL) in PBS (100 μL/well 25° C., overnight). The coating solution was removed, washed with wash buffer (0.05% Tween 20; 0.5 mM MnCl2; in 1×TBS). The plate was blocked with 200 μL/well of Block Buffer (1% BSA; 5% sucrose; 0.5 mM MnCl2; in 1×TBS) at 37° C. for 2 h. Dilutions of Compound 1 and recombinant TGFβ1 LAP (0.67 μg/mL) in binding buffer (0.05% BSA; 2.5% sucrose; 0.5 mM MnCl2; in 1×TBS) were added. The plate was incubated for 2 hours at 25° C., washed, and incubated for 1 hour with Biotin-Anti-hLAP. Bound antibody was detected by peroxidase-conjugated streptavidin. The IC50 values for the testing compound were calculated by a four-parameter logistic regression.
# human integrin αvβ6 [5] = target: T2, human integrin αvβ6 (Homo sapiens, UniProt P06756+P18564); assay: as above
# T2 sequence (P06756 31-992 limits assumed): as the sequence (P06756 31-992 limits assumed) above
# T2 sequence (P18564 22-707 limits assumed): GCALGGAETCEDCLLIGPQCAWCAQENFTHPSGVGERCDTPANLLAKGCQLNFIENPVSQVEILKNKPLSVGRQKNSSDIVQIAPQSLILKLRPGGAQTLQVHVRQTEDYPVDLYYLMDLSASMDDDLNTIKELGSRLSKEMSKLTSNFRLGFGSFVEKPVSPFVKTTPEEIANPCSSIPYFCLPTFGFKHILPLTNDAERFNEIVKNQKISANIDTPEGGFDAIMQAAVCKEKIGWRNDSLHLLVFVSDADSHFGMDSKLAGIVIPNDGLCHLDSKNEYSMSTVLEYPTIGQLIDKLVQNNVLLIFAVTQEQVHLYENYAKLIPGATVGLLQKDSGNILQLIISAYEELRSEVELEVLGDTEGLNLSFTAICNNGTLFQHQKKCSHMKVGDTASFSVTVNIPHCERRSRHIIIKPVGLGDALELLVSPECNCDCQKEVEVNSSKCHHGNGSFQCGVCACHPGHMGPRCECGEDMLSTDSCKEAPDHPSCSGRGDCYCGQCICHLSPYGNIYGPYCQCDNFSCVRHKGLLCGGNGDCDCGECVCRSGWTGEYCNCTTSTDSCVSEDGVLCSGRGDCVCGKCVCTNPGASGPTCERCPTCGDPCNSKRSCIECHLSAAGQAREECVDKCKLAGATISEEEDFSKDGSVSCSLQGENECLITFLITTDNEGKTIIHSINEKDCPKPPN
# Procedure: as §2
# CDAHFD NASH mouse model [6] = assay: Prophylactic abbreviated 3-week CDAHFD NASH model; assay type: in vivo; conditions: high dose
# Procedure: as §1
# [7] = test system: murine CCl4 model of liver fibrosis; assay: 3-week murine CCl4 model of liver fibrosis; assay type: in vivo, mice; conditions: all doses, dosed during the final week of injury
# Procedure: Antifibrotic activity of Compound 1 was established in an abbreviated, 3-week, murine CCl4 model of liver fibrosis. CCl4 is a hepatotoxin that when injected into mice results in liver fibrosis (Constandinou 2005). Compound 1 was dosed during the final week of injury.
# [8] = test system: precision cut liver slices from cirrhotic NASH patient explants; assay: Profibrotic gene expression and fibrosis biomarkers in precision cut liver slices; assay type: cell-based, human; parameters: reduction of gene expression of collagen, type 1, alpha 1 (COL1A1) / reduction of the level of FBN-C in culture media / reduction of PRO-C1 in culture media / reduction of PRO-C3 in culture media / reduction of PRO-C4 in culture media: concentration or dose not given beside the values
# Procedure: The ability of Compound 1 to inhibit the expression of profibrotic genes and decrease biomarkers of fibrosis was measured in precision cut liver slices generated using cirrhotic liver tissues from NASH patient explants and from rodent models of liver fibrosis and NASH.
# Data are mean +/−standard deviation from the 5 cirrhotic NASH patients. DMSO was used as the solvent and utilized at a constant concentration (0.1%) across the different groups. […] was used as a positive control.
# human integrin αVβ1 [9] = target: T1, human integrin αVβ1; assay: ALPHASCREEN proximity-based integrin binding assay; parameters: 6xHis (on the heterodimer); conditions: read-out: Proximity-Based Assy IC50, αvβ1
# Procedure: (§3) Compound 1 was tested for αVβ1 or αVβ6 integrin biochemical potency using the ALPHASCREEN® (Perkin Elmer, Waltham, Mass.) proximity-based assay (a bead-based, non-radioactive Amplified Luminescent Proximity Homogeneous Assay) as described previously (Ullman E F et al., Luminescent oxygen channeling immunoassay: Measurement of particle binding kinetics by chemiluminescence. Proc. Natl. Acad. Sci. USA, Vol. 91, pp. 5426-5430, June 1994). To gauge the potency of inhibitors of binding to human integrin αVβ1 or αvβ6, the inhibitor compound and the integrin were incubated together with recombinant TGFβ1 LAP and biotinylated anti-LAP antibody plus acceptor and donor beads, following the manufacturer's recommendations. The donor beads were coated with streptavidin. […] All incubations occurred at room temperatures in 50 mM Tris-HCl, pH 7.5, 0.1% BSA supplemented with 1 mM each CaCl2 and MgCl2. The order of reagent addition was as follows: 1. αVβ1 or αVβ6 integrin, test inhibitor Compound 1, LAP, biotinylated anti-LAP antibody and acceptor beads were all added together. 2. After 2 hours, donor beads were added. After another 30 min incubation, samples were read.
# human integrin αvβ6 [10] = target: T2, human integrin αvβ6; assay: ALPHASCREEN proximity-based integrin binding assay; parameters: 6xHis (on the heterodimer); conditions: read-out: Proximity-Based Assy IC50, αvβ6
# Procedure: as §3
# [11] = test system: healthy subjects, patients with T2DM, obese patients; conditions: cited from earlier work
# [12] = test system: Patients with histologically confirmed NASH (F1-F3) or phenotypic NASH; assay: Placebo-controlled, randomized Phase 2a study of licogliflozin, 12 weeks (NCT03205150); assay type: in vivo, human
# Procedure: Method: Patients with histologically confirmed NASH (F1-F3) or phenotypic NASH (BMI≥27 kg/m^2 in non-Asians or ≥23 kg/m^2 in Asians, ALT≥50 (males) or ≥35 (females) and type 2 diabetes (T2DM)) received daily oral licogliflozin at 150 mg, 30 mg or placebo in a 2:2:1 ratio for 12 weeks (NCT03205150). The primary endpoint was the effect on ALT level after 12 weeks of treatment. Secondary endpoints include improvement in body weight, liver fat content and AST, amongst others. The study size was 110 of which 77 completed (placebo (n=18); licogliflozin 30 mg (n=25) and licogliflozin 150 mg (n=34)) and are included in the interim analysis.
# [13] = all doses (medium, high, highest), therapeutic, 3 independent studies
# [14] = did not achieve statistical significance
# [15] = two days of treatment, slices from 5 cirrhotic NASH patients
# [16] = 30 mg, 12 weeks, interim analysis
# [17] = 150 mg, 12 weeks, interim analysis
compound,measurement,setting,value
"CC1(C(=O)N[C@@H](CCCCCCCc2ccc3c(n2)NCCC3)C(=O)O)CCOCC1 [Compound 1, (S)-2-(4-methyltetrahydro-2H-pyran-4-carboxamido)-9-(5,6,7,8-tetrahydro-1,8-naphthyridin-2-yl)nonanoic acid]",reduction of OHP concentrations,CDAHFD NASH mouse model [1],24%
same,reduction of pSMAD3 levels,CDAHFD NASH mouse model [1],40%
same,reduction of hepatic OHP,CDAHFD NASH mouse model [2]; [13],up to 38%
same,reduction of pSMAD3 levels,CDAHFD NASH mouse model [2]; [13],up to 57%
same,Collagen gene expression (Col1a1 and Col3a1),CDAHFD NASH mouse model [2]; high and highest doses,significantly reduced
same,"gene expression of profibrotic markers Ctgf, Mmp-2, and Timp1",CDAHFD NASH mouse model [2]; high and highest doses,significantly reduced
same,Gene expression of Acox1 and Ehhadh,"CDAHFD NASH mouse model [2]; mouse, in vivo",significantly increased
same,collagen area (histological analysis),"CDAHFD NASH mouse model [2]; mouse, in vivo",significant reduction
same,composite fibrosis score (second harmonic generation imaging): quantity and quality of the collagen fibers,"CDAHFD NASH mouse model [2]; mouse, in vivo",significant reduction
same,reduction in OHP concentration,"CDAHFD NASH mouse model [2]; separate sentence of b235, dose not stated",24%
same,tolerability in healthy volunteers,[3],well tolerated
same,IC50,human integrin αVβ1 [4],< 50 nM
same,IC50,human integrin αvβ6 [5],< 50 nM
same,expression of Ehhadh,CDAHFD NASH mouse model [6]; both studies,significantly elevated
same,gene expression of collagens,CDAHFD NASH mouse model [6]; one of the two studies,Significantly reduced
same,decrease of pSMAD3 levels in the liver,"CDAHFD NASH mouse model [6]; prophylactic, 3-week CDAHFD",19%
same,reduction of hepatic OHP concentrations,"CDAHFD NASH mouse model [6]; prophylactic, both studies",~30%
same,Levels of phosphorylated SMAD3 (pSMAD3)/SMAD3 in the liver,[7],significantly reduced
same,"hepatic Col1a1, Col1a2, and Col3a1 expression",[7],significant reduction; also recorded: significantly reduced
same,reduction of PRO-C1 in culture media,[8]; [14],34%
same,reduction of PRO-C3 in culture media,[8]; [14],16%
same,reduction of PRO-C4 in culture media,[8]; [14],15%
same,reduction of the level of FBN-C in culture media,[8]; significant,26%
same,metalloproteinase inhibitor 1 (TIMP1) gene expression,[8]; [15],reduced
same,"reduction of gene expression of collagen, type 1, alpha 1 (COL1A1)",[8]; [15],39%
same,IC50,human integrin αVβ1 [9],50 to 250 nM
same,IC50,human integrin αvβ6 [10],< 50 nM
"CCc1ccc([C@@H]2O[C@H](CO)[C@@H](O)[C@H](O)[C@H]2O)cc1Cc1ccc2c(c1)OCCO2 [licogliflozin, (2S,3R,4R,5S,6R)-2-(3-((2,3-dihydrobenzo[b][1,4]dioxin-6-yl)methyl)-4-ethylphenyl)-6-(hydroxymethyl)tetrahydro-2H-pyran-3,4,5-triol]",weight loss in obese patients,"[11]; 150 mg daily dose, 12 week treatment",~6%
same,safety and tolerability,"[11]; 150 mg once daily, twelve weeks, normoglycemic and dysglycemic subjects",generally safe and well tolerated
same,dose-limiting toxicity,"[11]; 150 mg once daily, twelve weeks",diarrhea
same,safety and tolerability,[11]; healthy subjects and patients with T2DM,safe and tolerated
same,pharmacokinetic profile,"[11]; human, in vivo",favorable pharmacokinetic profile
same,placebo-adjusted weight loss,"[11]; over 2 weeks, healthy subjects and patients with T2DM",up to 3%
same,Absolute reduction in liver fat,[12]; [16],2.71%
same,"Diarrhea (most common adverse event), patients reporting",[12]; [16],40%
same,Placebo adjusted reduction in HbA1c (absolute change),[12]; [16],0.81%
same,Relative reduction in liver fat content,[12]; [16],10%
same,patients achieving at least 5% absolute reduction in liver fat,[12]; [16],43.5%
same,proportion of patients with at least a 30% relative reduction in liver fat content,[12]; [16],39.5%
same,reduction in AST,[12]; [16],23%
same,reduction in GGT,[12]; [16],26%
same,placebo-adjusted reduction in GGT,"[12]; 30 mg, Week 12, full analysis",24%
same,placebo-adjusted reduction in serum ALT,"[12]; 30 mg, Week 12, full analysis",21%
same,placebo-adjusted reduction in serum AST,"[12]; 30 mg, Week 12, full analysis",21%
same,Absolute reduction in liver fat,[12]; [17],4.45%
same,"Diarrhea (most common adverse event), patients reporting",[12]; [17],76.5%
same,Placebo adjusted reduction in HbA1c (absolute change),[12]; [17],0.96%
same,Relative reduction in liver fat content,[12]; [17],22%
same,patients achieving at least 5% absolute reduction in liver fat,[12]; [17],63.3%
same,proportion of patients with at least a 30% relative reduction in liver fat content,[12]; [17],66.7%
same,reduction in AST,[12]; [17],30%
same,reduction in GGT,[12]; [17],32%
same,placebo-adjusted reduction in GGT,"[12]; 150 mg, Week 12, full analysis",36%
same,placebo-adjusted reduction in serum ALT,"[12]; 150 mg, Week 12, full analysis",32%
same,placebo-adjusted reduction in serum AST,"[12]; 150 mg, Week 12, full analysis",32%
same,safety and tolerability,[12]; 12 weeks of treatment,safe and tolerable
same,absolute and relative liver fat content,"[12]; 12 weeks, full analysis",Dose-dependent decreases
same,HOMA-IR (insulin sensitivity),"[12]; Week 12, full analysis",improvements
same,HbA1c (glycemic control),"[12]; Week 12, full analysis",improvements
same,body weight compared with placebo,"[12]; Week 12, full analysis",Statistically significant reductions
same,waist circumference compared with placebo,"[12]; Week 12, full analysis",Statistically significant reductions
same,Placebo adjusted reduction in body weight,"[12]; both doses (150 mg and 30 mg), 12 weeks, interim analysis",~4%
"CC(C)(C)c1cc(Br)cc([C@H](CC(=O)O)NC(=O)CNC(=O)c2cc(O)cc(NC3=NCC(O)CN3)c2)c1 (stereo partly drawn) [CWHM12, (3S)—N-[3-hydroxy-5-[(1,4,5,6-tetrahydro-5-hydroxy-2-pyrimidinyl)amino]benzoyl] glycyl-3-[3-bromo-5-(1,1-dimethylethyl)phenyl]-β-alanine]",reduction of OHP concentrations,CDAHFD NASH mouse model [1],30%
same,reduction of pSMAD3 levels,CDAHFD NASH mouse model [1],61%
